Laboratory results taken from article PMC8617031, “Development of a BCL-xL and BCL-2 dual degrader with improved anti-leukemic activity,” (Nature Communications, 2021).
“And” between values parts separate entries of the source, which are not always exact repeats. Equal values may be shown once.

Tests used:
BCL-xL = molecular target: T1, BCL-xL (Homo sapiens, UniProt Q07817); experiment: BCL-xL degradation by immunoblot in 293T cells; type: cell-based; details: for DC50: four concentrations, Fig. 2b, read-out: BCL-xL DC50; for Dmax: HEK-293T
T1 construct: endogenous in cells
T1 sequence (Q07817 whole entry): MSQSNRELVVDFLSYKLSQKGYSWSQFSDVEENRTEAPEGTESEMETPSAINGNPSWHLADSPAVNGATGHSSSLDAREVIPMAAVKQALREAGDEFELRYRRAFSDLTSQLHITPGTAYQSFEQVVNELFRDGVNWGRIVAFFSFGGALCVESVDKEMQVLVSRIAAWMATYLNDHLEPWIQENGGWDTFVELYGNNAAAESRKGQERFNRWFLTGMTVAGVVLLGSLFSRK
Method: (§1) The DC50 and Dmax were calculated using Prism based on the ImageJ-quantified western blots in Supplementary Fig. 4. c, d AlphaLISA assay to determine the formation of BCL-xL/PROTAC/VHL-ELOC-ELOB (VCB) (c) or BCL-2/PROTAC/VCB (d) ternary complex in a cell-free condition. Data represent the mean of a single experiment with 2 technical replicates. Similar results were obtained in one more independent experiment. e, f NanoBRET assays evaluating intracellular BCL-xL/PROTAC/VCB (e) or BCL-2/PROTAC/VCB (f) ternary complex formation. […] Data are expressed as mean ± s.e.m. of three biological replicates. Source data are provided as a Source data file.
(§2) Representative immunoblots are shown in (a–d) and β-actin was used as a loading control in all immunoblot analyses. The normalized protein content in the immunoblots is presented as mean values ± s.e.m. (n = 3 biologically independent experiments) in the bar graph (bottom panel). e, f The formation of BCL-xL/PROTAC/VCB (e) and BCL-2/PROTAC/VCB (f) ternary complexes in a cell-free condition was determined by AlphaLISA assay. Data represent the mean of a single experiment with 2 technical replicates. […] Source data are provided as a Source data file.
(§3) Cells were collected, washed once with ice-cold phosphate-buffered saline, pH 7.2 (PBS, cat. no. 20012027; Thermo Fisher Scientific) and lysed in RIPA lysis buffer (Cat. No. BP-115DG, Boston Bio Products, Ashland, MA, USA) supplemented with protease and phosphatase inhibitor cocktails (Cat. No. PPC1010, Sigma-Aldrich, St. Louis, MO, USA) through sonication. The samples were centrifuged at 14,000 r.p.m. for 5 min and the supernatants were transferred into a new tube. The protein concentration in the supernatants was determined using the Pierce BCA protein Assay kit (cat. no. 23225, Thermo Fisher Scientific). The protein concentration was normalized, and the samples were reduced in 4× Laemmli’s SDS-sample buffer (cat. no. BP-110R, Boston Bio Products) and denatured at 95 °C for 5 min. An equal amount of protein samples (20–40 μg per lane) were resolved using precast 4–20% Tris-glycine gels (Mini-PROTEAN TGX, cat. no. 456–1094, Bio-Rad), and resolved proteins were transferred onto 0.2-µm pore size polyvinylidene difluoride (PVDF) blotting membranes (cat. no. LC2002, Thermo Fisher Scientific) using mini trans-blot electrophoretic transfer cell (Bio-Rad). The membranes were blocked with non-fat dry milk (5% wt/vol) in 1× Tris-buffered saline-Tween-20 (TBST, cat. no. J77500, Affymetrix) for 1 h at room temperature, and were subsequently probed with primary antibodies at a predetermined optimal concentration in non-fat dry milk (5% wt/vol in TBST) overnight at 4 °C. The membranes were washed three times (5 min each) in TBST and then incubated with horse radish peroxidase (HRP)-conjugated secondary antibodies for 1 h at room temperature. Following sufficient washing with TBST, the membranes were exposed with chemiluminescent HRP substrate (cat. no. WBKLS0500, MilliporeSigma), and the signal was detected using the ChemiDoc MP Imaging System (Bio-Rad) and quantified using the ImageJ (v1.53a) software from NIH.

BCL-2 = molecular target: T2, BCL-2 (Homo sapiens, UniProt P10415); experiment: BCL-2 degradation by immunoblot in 293T cells; type: cell-based; details: for Dmax: HEK-293T
T2 construct: endogenous in cells
T2 sequence (P10415 whole entry): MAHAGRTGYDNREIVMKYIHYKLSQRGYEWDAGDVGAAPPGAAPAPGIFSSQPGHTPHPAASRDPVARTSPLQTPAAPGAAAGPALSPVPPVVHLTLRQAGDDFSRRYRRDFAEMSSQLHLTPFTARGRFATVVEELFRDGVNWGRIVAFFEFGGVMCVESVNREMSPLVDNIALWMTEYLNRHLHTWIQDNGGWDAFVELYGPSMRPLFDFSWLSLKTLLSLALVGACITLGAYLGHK
Method: as §1, §2, §3

[1] = molecular target: T3, BCL-xL/PROTAC/VHL-ELOC-ELOB (VCB) ternary complex (Homo sapiens, UniProt P40337+Q07817); experiment: AlphaLISA ternary complex formation, cell-free, BCL-xL; type: binding; details: for in vitro ternary complex formation with BCL-xL (in words): AlphaLISA, cell-free, Fig. 2c, 3e; for AlphaLISA signal, BCL-xL/PROTAC/VCB: Fig. 2c raw Alpha reads
T3 construct: pGEX-6P-1-VHL(54-213) (pDL2200) was constructed through Gibson assembly method; made in house; host or cells: bacterial culture (LB broth, IPTG induction)
T3 sequence (Q07817 1-212 limits assumed): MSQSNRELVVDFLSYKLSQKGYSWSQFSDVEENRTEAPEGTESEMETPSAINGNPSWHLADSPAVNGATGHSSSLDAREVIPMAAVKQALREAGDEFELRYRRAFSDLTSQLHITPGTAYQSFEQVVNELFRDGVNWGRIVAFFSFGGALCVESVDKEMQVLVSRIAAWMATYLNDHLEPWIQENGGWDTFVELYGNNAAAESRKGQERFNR
T3 sequence (P40337 54-213 limits assumed): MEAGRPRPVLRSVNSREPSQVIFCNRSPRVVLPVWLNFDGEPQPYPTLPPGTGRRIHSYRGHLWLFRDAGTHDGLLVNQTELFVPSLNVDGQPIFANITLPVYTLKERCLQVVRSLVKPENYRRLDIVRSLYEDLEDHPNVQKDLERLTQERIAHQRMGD
T3 sequence (Q15369 17-112 partner limits assumed): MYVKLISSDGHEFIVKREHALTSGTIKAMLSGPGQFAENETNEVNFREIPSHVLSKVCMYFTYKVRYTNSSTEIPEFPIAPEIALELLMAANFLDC
T3 sequence (Q15370 whole entry partner): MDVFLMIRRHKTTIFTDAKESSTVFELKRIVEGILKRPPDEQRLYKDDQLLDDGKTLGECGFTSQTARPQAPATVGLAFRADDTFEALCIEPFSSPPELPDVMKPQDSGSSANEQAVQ
Method: (§4) AlphaLISA assay was used to evaluate the in vitro ternary complex formation between target proteins (BCL-xL or BCL-2), PROTAC and E3 ligase (VCB complex). In each well, 5 nM His-tagged BCL-xL or BCL-2 proteins and 5 nM GST-VCB complex was incubated with varying concentrations of compounds in fourfold serial dilutions, to a final volume of 40 µl in a 96-well PCR plate. After incubation at room temperature for 30 min, 5 µl alpha glutathione-donor beads (Cat. No. 6765300, PerkinElmer) were added to each well (20 µg/ml final concentration) and incubated for another 15 min. Thereafter, 5 µL 6× His-acceptor beads were added to each well (20 µg/ml final concentration) and incubated for an additional 45 min at room temperature. Thereafter, 17 µl of each sample was transferred in adjacent wells of a 384-well proxy plate, and the plate was scanned using the Alpha program on Biotek’s Synergy Neo2 multimode plate reader. The data were expressed as average AlphaLISA signal and plotted against different concentrations of compounds using GraphPad Prism 9 software.

[2] = molecular target: T4, BCL-2/PROTAC/VCB ternary complex (Homo sapiens, UniProt P10415+P40337); experiment: AlphaLISA ternary complex formation, cell-free, BCL-2; type: binding; details: for in vitro ternary complex formation with BCL-2 (in words): AlphaLISA, cell-free, Fig. 2d, 3f; for AlphaLISA signal, BCL-2/PROTAC/VCB: Fig. 2d raw Alpha reads
T4 construct: pGEX-6P-1-VHL(54-213) (pDL2200) was constructed through Gibson assembly method; made in house; host or cells: bacterial culture (LB broth, IPTG induction)
T4 sequence (P10415 1-211 limits assumed): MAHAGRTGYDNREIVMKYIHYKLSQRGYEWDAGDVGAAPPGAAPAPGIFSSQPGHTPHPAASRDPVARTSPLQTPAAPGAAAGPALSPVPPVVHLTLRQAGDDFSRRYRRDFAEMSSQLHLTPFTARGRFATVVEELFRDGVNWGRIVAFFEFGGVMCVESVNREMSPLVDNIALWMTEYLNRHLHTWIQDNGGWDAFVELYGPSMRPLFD
T4 sequence (P40337 54-213 limits assumed): as the sequence (P40337 54-213 limits assumed) above
T4 sequence (Q15369 17-112 partner limits assumed): as the sequence (Q15369 17-112 partner limits assumed) above
T4 sequence (Q15370 whole entry partner): as the sequence (Q15370 whole entry partner) above
Method: as §4

[3] = compound 200000 nM, 2 technical replicates

Row | Dmax (BCL-xL) | Dmax (BCL-2) | in vitro ternary complex formation with BCL-xL (in words) [1] | AlphaLISA signal, BCL-xL/PROTAC/VCB ([1]; compound 0.191 nM) | AlphaLISA signal, BCL-xL/PROTAC/VCB ([1]; compound 0.763 nM) | AlphaLISA signal, BCL-xL/PROTAC/VCB ([1]; compound 3.052 nM) | AlphaLISA signal, BCL-xL/PROTAC/VCB ([1]; compound 12.207 nM) | AlphaLISA signal, BCL-xL/PROTAC/VCB ([1]; compound 48.828 nM) | AlphaLISA signal, BCL-xL/PROTAC/VCB ([1]; compound 195.31 nM) | AlphaLISA signal, BCL-xL/PROTAC/VCB ([1]; compound 781.25 nM) | AlphaLISA signal, BCL-xL/PROTAC/VCB ([1]; compound 12500 nM) | AlphaLISA signal, BCL-xL/PROTAC/VCB ([1]; compound 50000 nM) | in vitro ternary complex formation with BCL-2 (in words) [2] | AlphaLISA signal, BCL-2/PROTAC/VCB ([2]; compound 0.191 nM) | AlphaLISA signal, BCL-2/PROTAC/VCB ([2]; compound 0.763 nM) | AlphaLISA signal, BCL-2/PROTAC/VCB ([2]; compound 3.052 nM) | AlphaLISA signal, BCL-2/PROTAC/VCB ([2]; compound 12.207 nM) | AlphaLISA signal, BCL-2/PROTAC/VCB ([2]; compound 48.828 nM) | AlphaLISA signal, BCL-2/PROTAC/VCB ([2]; compound 195.31 nM) | AlphaLISA signal, BCL-2/PROTAC/VCB ([2]; compound 781.25 nM) | Structure (SMILES) | other results
1 | 56% | 47% | stronger ternary complexes | 14064 and 15339 | 16647 and 16446 | 29664 and 30068 | 308120 and 297735 | 915794 and 868616 | 760327 and 820012 | 680312 and 708753 | 45345 and 53654 | 21182 and 20463 | stronger ternary complexes | 15183 and 13115 | 15317 and 19455 | 45755 and 47236 | 410345 and 373015 | 1136924 and 1140765 | 1286256 and 1221888 | 709163 and 786788 | Cc1ncsc1-c1ccc([C@H](C)NC(=O)[C@@H]2C[C@@H](O)CN2C(=O)[C@@H](NC(=O)CCCC(=O)N2CCN(CC3(C)CCC(c4ccc(Cl)cc4)=C(CN4CCN(c5ccc(C(=O)NS(=O)(=O)c6ccc(N[C@H](CCN7CCOCC7)CSc7ccccc7)c(S(=O)(=O)C(F)(F)F)c6)cc5)CC4)C3)CC2)C(C)(C)C)cc1 (stereo partly shown) [PPC5] | BCL-xL degradation (in words) (BCL-xL; 293T cells, 16 h): partially degrade BCL-xL; DC50 (BCL-xL; 293T cells, 16 h): 316 nM; AlphaLISA signal, BCL-xL/PROTAC/VCB ([1]; compound 3125 nM): 257573 and 298187; AlphaLISA signal, BCL-2/PROTAC/VCB ([2]; compound 3125 nM): 91120 and 92885; AlphaLISA signal, BCL-2/PROTAC/VCB ([2]; compound 12500 nM): 18341 and 15512
2 | 81% | 69% | much weaker ternary complexes | 14831 and 16852 | 20168 and 16739 | 14541 and 18037 | 19478 and 16699 | 33222 and 36251 | 136427 and 150589 | 133700 and 133335 | 16869 and 17291 | 11499 and 11443 | much weaker ternary complexes | 13116 and 18939 | 20209 and 15528 | 15560 and 16756 | 23256 and 23865 | 69142 and 68261 | 218425 and 202826 | 114837 and 140035 | Cc1ncsc1-c1ccc([C@H](C)NC(=O)[C@@H]2C[C@@H](O)CN2C(=O)[C@@H](NC(=O)CCCCCCCCC(=O)N2CCN(CC3(C)CCC(c4ccc(Cl)cc4)=C(CN4CCN(c5ccc(C(=O)NS(=O)(=O)c6ccc(N[C@H](CCN7CCOCC7)CSc7ccccc7)c(S(=O)(=O)C(F)(F)F)c6)cc5)CC4)C3)CC2)C(C)(C)C)cc1 (stereo partly shown) [PPC10] | DC50 (BCL-xL; 293T cells, 16 h): 12.1 nM; BCL-2 degradation (in words) (BCL-2; 293T cells, 16 h): also degraded BCL-2; DC50 (BCL-2; 293T cells, four concentrations, 16 h, Fig. 2b, read-out: BCL-2 DC50): 355 nM; AlphaLISA signal, BCL-xL/PROTAC/VCB [1, 3]: 9101 and 11295; AlphaLISA signal, BCL-2/PROTAC/VCB ([2]; compound 3125 nM): 20525 and 27108; AlphaLISA signal, BCL-2/PROTAC/VCB ([2]; compound 12500 nM): 13932 and 13026; AlphaLISA signal, BCL-2/PROTAC/VCB ([2]; compound 50000 nM): 10041 and 13037; AlphaLISA signal, BCL-2/PROTAC/VCB [2, 3]: 11345 and 10101
3 | 38% | 38% | much weaker ternary complexes | 14159 and 17511 | 19035 and 14403 | 18192 and 15524 | 16016 and 15699 | 18370 and 17440 | 28376 and 33281 | 25822 and 27451 | 15507 and 16950 | 13057 and 15839 | much weaker ternary complexes | 16751 and 14492 | 17062 and 15173 | 17477 and 13618 | 15016 and 16035 | 21071 and 20895 | 36395 and 36207 | 16303 and 18907 | Cc1ncsc1-c1ccc([C@H](C)NC(=O)[C@@H]2C[C@@H](O)CN2C(=O)[C@@H](NC(=O)CCCCCCCCCC(=O)N2CCN(CC3(C)CCC(c4ccc(Cl)cc4)=C(CN4CCN(c5ccc(C(=O)NS(=O)(=O)c6ccc(N[C@H](CCN7CCOCC7)CSc7ccccc7)c(S(=O)(=O)C(F)(F)F)c6)cc5)CC4)C3)CC2)C(C)(C)C)cc1 (stereo partly shown) [PPC11] | AlphaLISA signal, BCL-xL/PROTAC/VCB ([1]; compound 3125 nM): 15301 and 22197; AlphaLISA signal, BCL-xL/PROTAC/VCB [1, 3]: 17326 and 15566; AlphaLISA signal, BCL-2/PROTAC/VCB ([2]; compound 3125 nM): 17856 and 16482; AlphaLISA signal, BCL-2/PROTAC/VCB ([2]; compound 12500 nM): 13061 and 15598; AlphaLISA signal, BCL-2/PROTAC/VCB ([2]; compound 50000 nM): 10324 and 9718; AlphaLISA signal, BCL-2/PROTAC/VCB [2, 3]: 13464 and 10765
